Measurements reported in patent publication US4371521A, “Pharmaceutical composition for retarding excessive platelet aggregation” (priority 1973, dated 1983).
Read-outs that look alike come from different tables or passages of the source.

Legend:
male albino mice = assay: Acute toxicity (LD50) in male albino mice; format: in vivo; conditions: Tainter and Miller, ± standard deviation
[1] = Pharmacological results of the single components; conditions: in the absence of the other component
creatine-phosphokinase = conditions: various buffers and pHs, cited from earlier work
[2] = Acute toxicity (LD50) in male albino mice; format: in vivo; conditions: mouse, in vivo, Tainter and Miller, ± standard deviation

Row | Molecule | LD50 (male albino mice) | pharmacological results of the component alone [1] | Rmax (creatine-phosphokinase) | Km (creatine-phosphokinase; read-out: Michaelis constant for creatine-phosphate) | LD50 [2] | Km (creatine-phosphokinase; read-out: Michaelis constant for ADP)
1 | CPK: enzyme found in striated and cardiac muscle and cerebral tissue; protein molecule of molecular weight 8.1×10^4; crystalline form from rabbit skeletal muscle | > 100 mg/kg | Neither the substrate (CP) alone (i.e. in the absence of the administration of the enzyme which brings about its conversion) nor the enzyme (CPK) alone gives the pharmacological results |  |  |  | 
2 | CN(CC(=O)O)C(=N)NP(=O)(O)O [CP, creatine-phosphate] |  | Neither the substrate (CP) alone (i.e. in the absence of the administration of the enzyme which brings about its conversion) nor the enzyme (CPK) alone gives the pharmacological results | 1.1 μmols/minute/μg of protein | 5000 µM | 3500 ± 120 mg/kg | 
3 | Nc1ncnc2c1ncn2[C@@H]1O[C@H](COP(=O)(O)OP(=O)(O)O)[C@@H](O)[C@H]1O [ADP, adenosine-diphosphate, reference compound] |  |  | 1.7 μmols/minute/μg of protein |  |  | 800 to 1000 µM
